Test results taken from patent US20150366890A1, “COMPOSITIONS AND METHODS FOR TREATING FUNGAL INFECTIONS” (TRUSTEES OF BOSTON UNIVERSITY, priority 2013, published 2015).
Where two headings read alike, the source gives them in different places.

Tests used:
Type in all cases: cell-based
[1] = tested on: S. cerevisiae single-deletion yeast strains; experiment: High-throughput 96-well screen of AF sensitivity of single-gene knockouts (CFU at start and after 8 hours); settings: S. cerevisiae PAB156, COX6 deletion
Description: To identify genes critical to AF action, the AF sensitivity of single-gene knockouts identified through the common transcriptional analysis were identified. In the first pass-through, 56 testable genes were identified. This set was later expanded to include targets identified through phenotypic analysis and metabolomic profiling, for a total of 84 target genes (Table 2). The initial 56 targets were tested using a rapid high-throughput 96-well assay with AMB and MCZ to identify single-gene knockouts with elevated resistance to AFs (Table 2). Knockouts that were more resistant to at least one of the AFs were tested individually using the 24-well colony forming (CF) assay. Target genes selected after the initial 56 strains were assayed individually using the 24-well CF assay.
The first 56 S. cerevisiae strains were acquired from the deletion library and stored in 96-well plates in replicates of three. To start the assay, the plates were defrosted and 10 μl of stored cells were inoculated into 100 μl of fresh synthetic dextrose complete (SDC) media for 16 hours. These overnight cultures were diluted into a fresh 96-well plate with 100 μl of SDC to achieve an OD600 of approximately 0.2. Colony forming units (CFU) in each well were measured at the start of the assay and after 8 hours of incubation. The AF susceptibility of each strain was compared to that of wildtype. Strains with significant susceptibility differences from wildtype were assayed in 0.5 ml of SDC media using the 24-well plate CF assay described above.

[2] = tested on: S. cerevisiae; experiment: Mitochondrial activity by MitoTracker Red fluorescence; settings: drug added to glucose-incubated (SC, 2% glucose) S. cerevisiae
Description: It was next sought to assess the mitochondrial activity of AF-treated fungal cells. Yhe MitoTracker Red dye, which enters the mitochondrial matrix by utilizing the proton motive force and thus labels metabolically active mitochondria in viable cells was used (Arita et al., 2006; Tomas et al., 2011). Exponential phase S. cerevisiae were incubated in glucose-free synthetic complete (SC) media for 30 min and then switched to SC containing 2% glucose or non-fermentable acetate for 1.5 hours.
Overnight yeast cultures were diluted into the indicated media and grown to an OD600 of 0.2, at which point the AFs were added. Colony forming units (CFU) were measured by plating six serial dilutions onto YPD agar plates. Cells treated with MCZ were washed before serial dilution to stop growth inhibition associated with high concentrations of MCZ. CFU were counted after three days of incubation on agar plates. When indicated, thiourea (Fluka) was added 30 min prior to the addition of AFs. HPF (10 μM) (Invitrogen) and Mito Tracker (1 μM) (Invitrogen) dyes were added to PBS-washed cells at the indicated time points and incubated for 30 min prior to flow cytometry measurements, which were taken on the FACSCalibur (Becton-Dickinson). All experiments described in this section were conducted in 0.5 ml of SDC in 24-well plates incubated at 900 rpm and 37° C. for C. albicans and 30° C. and 300 rpm for S. cerevisiae. TUNEL assays were conducted as previously described (Ribeiro et al., 2006) and are described in detail in the TUNEL section of the Experimental Procedures.

[3] = tested on: S. cerevisiae wildtype and deletion strains

`C[C@@H]1[C@H](O)[C@@H](C)/C=C/C=C/C=C/C=C/C=C/C=C/C=C/[C@H](O[C@@H]2O[C@H](C)[C@@H](O)[C@H](N)[C@@H]2O)C[C@@H]2O[C@](O)(C[C@@H](O)C[C@@H](O)[C@H](O)CC[C@@H](O)C[C@@H](O)CC(=O)O[C@H]1C)C[C@H](O)[C@H]2C(=O)O` [AMB, amphotericin B] was tested, and the “96 Well Screen, AF susceptibility vs wildtype” value [1] was “Sensitive (″Resistant″ or ″Sensitive″ indicate at least a 5-fold CFU difference from wildtype at the final time point)”, the “increase of MitoTracker fluorescence” value [2] was 60 fold and the “additive resistance on deleting the remaining citrate synthases in the cit3 background” value ([3]; S. cerevisiae CIT1/CIT2 deletions in cit3 background) was “additive resistance”. For the same molecule, the “CFU (24-well colony forming assay), AF susceptibility vs wildtype” value (“CFU … vs wildtype” below) ([3]; S. cerevisiae PAB101, WT) was “Normal”, the “CFU … vs wildtype” value ([3]; S. cerevisiae PAB102, HSP104 deletion) was “Normal” and the “CFU … vs wildtype” value ([3]; S. cerevisiae PAB103, SDH2 deletion) was “Resistant (″Resistant″ or ″Sensitive″ indicate at least a 5-fold CFU difference from wildtype at the final time point)”. The “CFU … vs wildtype” value ([3]; S. cerevisiae PAB104, FRE8 deletion) was “Resistant (″Resistant″ or ″Sensitive″ indicate at least a 5-fold CFU difference from wildtype at the final time point)”, the “CFU … vs wildtype” value ([3]; S. cerevisiae PAB105, CHA4 deletion) was “Resistant (″Resistant″ or ″Sensitive″ indicate at least a 5-fold CFU difference from wildtype at the final time point)” and the “CFU … vs wildtype” value ([3]; S. cerevisiae PAB106, FMS1 deletion) was “Resistant (″Resistant″ or ″Sensitive″ indicate at least a 5-fold CFU difference from wildtype at the final time point)”. For the same molecule, the “CFU … vs wildtype” value ([3]; S. cerevisiae PAB107, NDE1 deletion) was “Resistant (″Resistant″ or ″Sensitive″ indicate at least a 5-fold CFU difference from wildtype at the final time point)”, the “CFU … vs wildtype” value ([3]; S. cerevisiae PAB108, ALD3 deletion) was “Normal” and the “CFU … vs wildtype” value ([3]; S. cerevisiae PAB112, MNE1 deletion) was “Resistant (″Resistant″ or ″Sensitive″ indicate at least a 5-fold CFU difference from wildtype at the final time point)”. For the same molecule, the “CFU … vs wildtype” value ([3]; S. cerevisiae PAB113, FUM1 deletion) was “Resistant (″Resistant″ or ″Sensitive″ indicate at least a 5-fold CFU difference from wildtype at the final time point)”, the “CFU … vs wildtype” value ([3]; S. cerevisiae PAB114, TPK2 deletion) was “Resistant (″Resistant″ or ″Sensitive″ indicate at least a 5-fold CFU difference from wildtype at the final time point)” and the “CFU … vs wildtype” value ([3]; S. cerevisiae PAB116, ISU1 deletion) was “Normal”. The “CFU … vs wildtype” value ([3]; S. cerevisiae PAB117, CYC7 deletion) was “Normal”, the “CFU … vs wildtype” value ([3]; S. cerevisiae PAB119, CIT2 deletion) was “Resistant (″Resistant″ or ″Sensitive″ indicate at least a 5-fold CFU difference from wildtype at the final time point)” and the “CFU … vs wildtype” value ([3]; S. cerevisiae PAB120, HSP30 deletion) was “Normal”. The “CFU … vs wildtype” value ([3]; S. cerevisiae PAB121, SDH1 deletion) was “Resistant (″Resistant″ or ″Sensitive″ indicate at least a 5-fold CFU difference from wildtype at the final time point)”, the “CFU … vs wildtype” value ([3]; S. cerevisiae PAB122, TPK3 deletion) was “Resistant (″Resistant″ or ″Sensitive″ indicate at least a 5-fold CFU difference from wildtype at the final time point)” and the “CFU … vs wildtype” value ([3]; S. cerevisiae PAB123, ISU2 deletion) was “Normal”. For the same molecule, the “CFU … vs wildtype” value ([3]; S. cerevisiae PAB124, TPK1 deletion) was “Resistant (″Resistant″ or ″Sensitive″ indicate at least a 5-fold CFU difference from wildtype at the final time point)”, the “CFU … vs wildtype” value ([3]; S. cerevisiae PAB132, CIT3 deletion) was “Resistant (″Resistant″ or ″Sensitive″ indicate at least a 5-fold CFU difference from wildtype at the final time point)” and the “CFU … vs wildtype” value ([3]; S. cerevisiae PAB135, NDI1 deletion) was “Resistant (″Resistant″ or ″Sensitive″ indicate at least a 5-fold CFU difference from wildtype at the final time point)”. The “CFU … vs wildtype” value ([3]; S. cerevisiae PAB145, CIT1 deletion) was “Resistant (″Resistant″ or ″Sensitive″ indicate at least a 5-fold CFU difference from wildtype at the final time point)”, the “CFU … vs wildtype” value ([3]; S. cerevisiae PAB149, YAK1 deletion) was “Sensitive (″Resistant″ or ″Sensitive″ indicate at least a 5-fold CFU difference from wildtype at the final time point)” and the “CFU … vs wildtype” value ([3]; S. cerevisiae PAB153, SHO1 deletion) was “Sensitive (″Resistant″ or ″Sensitive″ indicate at least a 5-fold CFU difference from wildtype at the final time point)”. The “CFU … vs wildtype” value ([3]; S. cerevisiae PAB155, FBP1 deletion) was “Sensitive (″Resistant″ or ″Sensitive″ indicate at least a 5-fold CFU difference from wildtype at the final time point)”, the “CFU … vs wildtype” value ([3]; S. cerevisiae PAB158, MSN4 deletion) was “Normal” and the “CFU … vs wildtype” value ([3]; S. cerevisiae PAB161, MSN2 deletion) was “Normal”. The “CFU … vs wildtype” value ([3]; S. cerevisiae PAB162, YAP1 deletion) was “Normal”, the “CFU … vs wildtype” value ([3]; S. cerevisiae PAB163, CIN5 deletion) was “Normal” and the “CFU … vs wildtype” value ([3]; S. cerevisiae PAB164, Pde2 deletion) was “Normal”. The “CFU … vs wildtype” value ([3]; S. cerevisiae PAB165, USV1 deletion) was “Normal”, the “CFU … vs wildtype” value ([3]; S. cerevisiae PAB166, CAD1 deletion) was “Normal” and the “CFU … vs wildtype” value ([3]; S. cerevisiae PAB167, RIM101 deletion) was “Normal”. The “CFU … vs wildtype” value ([3]; S. cerevisiae PAB168, RAS1 deletion) was “Resistant (″Resistant″ or ″Sensitive″ indicate at least a 5-fold CFU difference from wildtype at the final time point)”, the “CFU … vs wildtype” value ([3]; S. cerevisiae PAB169, HYR1 deletion) was “Resistant (″Resistant″ or ″Sensitive″ indicate at least a 5-fold CFU difference from wildtype at the final time point)” and the “CFU … vs wildtype” value ([3]; S. cerevisiae PAB170, CRZ1 deletion) was “Normal”. The “CFU … vs wildtype” value ([3]; S. cerevisiae PAB171, RAS2 deletion) was “Resistant (″Resistant″ or ″Sensitive″ indicate at least a 5-fold CFU difference from wildtype at the final time point)”, the “CFU … vs wildtype” value ([3]; S. cerevisiae PAB172, XBP1 deletion) was “Normal” and the “CFU … vs wildtype” value ([3]; S. cerevisiae PAB173, SRV2 deletion) was “Normal”. The “CFU … vs wildtype” value ([3]; S. cerevisiae PAB174, TPS3 deletion) was “Resistant (″Resistant″ or ″Sensitive″ indicate at least a 5-fold CFU difference from wildtype at the final time point)”, the “CFU … vs wildtype” value ([3]; S. cerevisiae PAB175, TPS2 deletion) was “Sensitive (″Resistant″ or ″Sensitive″ indicate at least a 5-fold CFU difference from wildtype at the final time point)” and the “CFU … vs wildtype” value ([3]; S. cerevisiae PAB177, SOD2 deletion) was “Normal”. For the same molecule, the “CFU … vs wildtype” value ([3]; S. cerevisiae PAB178, CTA1 deletion) was “Normal”, the “CFU … vs wildtype” value ([3]; S. cerevisiae PAB179, CTT1 deletion) was “Normal” and the “CFU … vs wildtype” value ([3]; S. cerevisiae PAB180, MET1 deletion) was “Normal”. The “CFU … vs wildtype” value ([3]; S. cerevisiae PAB181, TVP18 deletion) was “Normal”, the “CFU … vs wildtype” value ([3]; S. cerevisiae PAB182, PML39 deletion) was “Normal” and the “CFU … vs wildtype” value ([3]; S. cerevisiae PAB183, VPS9 deletion) was “Normal”. For the same molecule, the “higher drug concentration required by citrate synthase triple mutant to achieve the sensitivity of the single mutants” value ([3]; S. cerevisiae cit1 cit2 cit3 triple mutant, 3 hours of drug exposure) was “more than 8 fold” and the “reduction of killing at 3 hours by thiourea” value ([3]; S. cerevisiae, 50 mM thiourea for 30 minutes prior to the addition of AF drugs) was roughly 15 fold.
